Laboratory results: patent US20160331754A1, “THERAPIES FOR TREATING CANCERS” (GILEAD SCIENCES, INC., priority 2014, published 2016)
Several values for one entry are separate records, joined by “and”; a condition that tells them apart may be missing. Identical values can stand only once.

Assays:
Ri-1 DLBCL cells = experiment: Cell death assay (Annexin V/7AAD) in Ri-1 DLBCL cells; type: cell-based; settings: 0 nM Compound B, 3 days
Description: (§1) Further, whole blood (WB) autologous B-cell depletion and cell-death induction assays were conducted as described in Mossner et al., Blood 115:4393-402, 2010. For cell death assay: Ri-1 DLBCL cells were seeded at 15,000 cells/well in 96-well plates. Cells were preincubated with Compound B or DMSO for 1 hour before the addition of antibody. Plates were incubated at 37° C. in a humidified CO2 chamber for 3 days. Cells were washed once with PBS and treated with Accutase for 15 minutes before being stained with Guava Nexin® reagent and analyzed on the Guava EasyCyte flow cytometer (Merck Millipore).
After 3 days of incubation, cell death was assessed by Annexin V/7AAD staining.

autologous B cells = experiment: Whole blood (WB) autologous B-cell depletion assay; type: cell-based
Description: as §1
The percentage of deplete autologous B cells in a whole blood assay may represent the antibody potency.

WIL2-S = experiment: ADCC LDH release assay, purified NK cells against WIL2-S target cells; type: cell-based, human; settings: for Percentage of ADCC, obinutuzumab ADCC: obinutuzumab 10 μg/mL; for Percentage of ADCC, Palivizumab ADCC: Palivizumab (isotype control) 10 μg/mL
CLL = settings: patients with recurrent CLL; cited from earlier work
pS6RP Ser235/236 [1] = experiment: Flow cytometry, basal S6RP phosphorylation in CD34+ progenitor cells from MF patients; type: cell-based, human; settings: for effect on p-S6RP in MF progenitor cells: basal and TPO-treated, dose dependent
Description: (§2) PBMCs were isolated from whole blood of myelofibrosis (MF) patients who had not received treatments (i.e. naïve patients) or received ruxolitinib (i.e. rux-treated patients). The cells were treated with 0.02, 0.2, or 2.0 μM of Compound B or vehicle (0.1% DMSO in 0.1% FBS/RPMI) for 2 hours at 37° C. The cells were then fixed, permeabilized, and stained for FACS analysis. Antibodies specific to p-AKT Ser473 and pS6RP Ser235/236 were used to detect AKT phosphorylation (p-AKT) and S6RP phosphorylation (p-S6RP) in CD34^+/CD3^−/CD14^−/CD19/CD66^− (BD Biosciences) gated cells using flow cytometry. The percentage of basal (i.e. untreated with TPO) AKT and S6RP phosphorylation were normalized to vehicle control. A two-tailed paired t-test (GraphPad Prism) was used to calculate p-values. Values of p<0.05 were considered significant.
(§3) Similar studies were conducted with PI3K inhibitors Compounds C and D. PBMC from MF patients had received ruxolitinib (rux) and MF patient had received Compound A. The cells were treated with Compounds C or D at 0, 20.0, 200.0, 2000.0 nM for 2 hours at 37° C. Cells were treated with TPO for 10 minutes. The percentage of basal p-AKT and p-S6RP levels were normalized to vehicle control and those of TPO-treated were normalized to TPO-treated vehicle control. The PI3Kδ inhibitors Compound C is referred by the chemical names of (S)-2-(1-((9H-purin-6-yl)amino)ethyl)-6-fluoro-3-phenylquinazolin-4(3H)-one.

p-AKT Ser473 [2] = experiment: Flow cytometry, TPO-activated AKT phosphorylation in CD34+ progenitor cells from MF patients; type: cell-based, human
Description: as §2
(§4) Also, PBMC cells from naïve or ruxolitinib treated patients were isolated and treated with Compound B and with TPO as described above. The percentage of TPO-activated AKT and S6RP phosphorylation were normalized to those of TPO-treated vehicle (“no TPO” values in Table 4). […] Also, the inhibition to PI3K signaling was dose-dependent to Compound B.
as §3

pS6RP Ser235/236 [3] = experiment: Flow cytometry, TPO-activated S6RP phosphorylation in CD34+ progenitor cells from MF patients; type: cell-based, human
Description: as §2, §4, §3

p-AKT Ser473 [4] = experiment: Flow cytometry, basal AKT phosphorylation in CD34+ progenitor cells from MF patients; type: cell-based, human; settings: for effect on p-AKT in MF progenitor cells: basal and TPO-treated, dose dependent
Description: as §2, §3

[5] = administered once a day; cited from earlier work
[6] = 20 nM, Compound A-treated Cells
[7] = 200 nM, Compound A-treated Cells
[8] = 2000 nM, Compound A-treated Cells

obinutuzumab: glycoengineered, type II, anti-CD20 antibody
Percentage of total Annexin V+ cells (Ri-1 DLBCL cells; Obinutuzumab 0.1 μg/mL): 30% and 36% and 35% and 37% | Percentage of total Annexin V+ cells (Ri-1 DLBCL cells; Obinutuzumab 1 μg/mL): 45% and 50% and 49% and 46% | Percentage of total Annexin V+ cells (Ri-1 DLBCL cells; Obinutuzumab 10 μg/mL): 54% and 49% and 56% | Percentage of B-cell depletion in WB (autologous B cells; obinutuzumab 0.06 ng/mL alone): −4% and −2% and 0% | Percentage of B-cell depletion in WB (autologous B cells; obinutuzumab 8 ng/mL alone): 34% and 38% and 55% and 45% | Percentage of B-cell depletion in WB (autologous B cells; obinutuzumab 40 ng/mL alone): 43% and 49% and 60% and 65% | Percentage of B-cell depletion in WB (autologous B cells; obinutuzumab 200 ng/mL alone): 50% and 69% | Percentage of B-cell depletion in WB (autologous B cells; obinutuzumab 1000 ng/mL alone, donors S1-S4): 52% and 63% and 71% and 56% | Percentage of B-cell depletion WB (autologous B cells; obinutuzumab 10 μg/mL, Compound B 0 nM): 57% and 71% and 65% | Percentage of ADCC, obinutuzumab ADCC (WIL2-S; E:T 10:1): 74% and 73% and 69% and 67% and 71% | Percentage of ADCC, obinutuzumab ADCC (WIL2-S; E:T 30:1): 81% and 72% and 80% and 84% and 69% and 89% and 88%

Palivizumab: used as an isotype control [reference compound]
Percentage of total Annexin V+ cells (Ri-1 DLBCL cells; Palivizumab 10 μg/mL): 13% and 19% and 14% and 21% | Percentage of ADCC, Palivizumab ADCC (WIL2-S; E:T 1:1): 3% and 4% and −1% and 2% | Percentage of ADCC, Palivizumab ADCC (WIL2-S; E:T 3:1): 8% and 11% and 10% and 6% and 4% and 5% and 7% | Percentage of ADCC, Palivizumab ADCC (WIL2-S; E:T 30:1): 31% and 37% and 36% and 34% and 39% and 25% and 29% and 24%

ofatumumab: monoclonal antibody, alternative immunotherapeutic for CLL
median progression-free survival (PFS) (CLL): 5.8 months

C[C@H](Nc1ncnc2[nH]cnc12)c1nc2ccc(F)cc2c(=O)n1-c1ccccc1 [Compound C, (S)-2-(1-((9H-purin-6-yl)amino)ethyl)-6-fluoro-3-phenylquinazolin-4(3H)-one]
percentage of pS6, Basal (pS6RP Ser235/236 [1]; [6]): 82% | percentage of pS6, Basal (pS6RP Ser235/236 [1]; 20 nM, Rux-treated Cells): 65% | percentage of pS6, Basal (pS6RP Ser235/236 [1]; [7]): 75% | percentage of pS6, Basal (pS6RP Ser235/236 [1]; 200 nM, Rux-treated Cells): 59% | percentage of pS6, Basal (pS6RP Ser235/236 [1]; [8]): 53% | percentage of pS6, Basal (pS6RP Ser235/236 [1]; 2000 nM, Rux-treated Cells): 43% | effect on p-S6RP in MF progenitor cells (pS6RP Ser235/236 [1]): inhibited | percentage of pAKT, TPO (p-AKT Ser473 [2]; [6]): 65% | percentage of pAKT, TPO (p-AKT Ser473 [2]; 20 nM, Rux-treated Cells, TPO-treated vehicle=100): 65% | percentage of pAKT, TPO (p-AKT Ser473 [2]; [7]): 59% | percentage of pAKT, TPO (p-AKT Ser473 [2]; 200 nM, Rux-treated Cells): 53% | percentage of pAKT, TPO (p-AKT Ser473 [2]; [8]): 43% | percentage of pAKT, TPO (p-AKT Ser473 [2]; 2000 nM, Rux-treated Cells): 24% | percentage of pS6, TPO (pS6RP Ser235/236 [3]; [6]): 66% | percentage of pS6, TPO (pS6RP Ser235/236 [3]; 20 nM, Rux-treated Cells): 84% | percentage of pS6, TPO (pS6RP Ser235/236 [3]; [7]): 70% | percentage of pS6, TPO (pS6RP Ser235/236 [3]; 200 nM, Rux-treated Cells): 62% | percentage of pS6, TPO (pS6RP Ser235/236 [3]; [8]): 36% | percentage of pS6, TPO (pS6RP Ser235/236 [3]; 2000 nM, Rux-treated Cells): 42% | percentage of pAKT, Basal (p-AKT Ser473 [4]; 20 nM 2 h, Rux-treated Cells, vehicle=100): 88% | percentage of pAKT, Basal (p-AKT Ser473 [4]; [6]): 89% | percentage of pAKT, Basal (p-AKT Ser473 [4]; [7]): 82% | percentage of pAKT, Basal (p-AKT Ser473 [4]; 200 nM, Rux-treated Cells): 90% | percentage of pAKT, Basal (p-AKT Ser473 [4]; [8]): 75% | percentage of pAKT, Basal (p-AKT Ser473 [4]; 2000 nM, Rux-treated Cells): 75% | effect on p-AKT in MF progenitor cells (p-AKT Ser473 [4]): inhibited

C[C@H](Nc1ncnc2[nH]cnc12)c1nc2ccccc2c(=O)n1-c1c(F)cccc1F [Compound D, (S)-2-(1-((9H-purin-6-yl)amino)ethyl)-3-(2,6-difluorophenyl)quinazolin-4(3H)-one]
effect on p-S6RP in MF progenitor cells (pS6RP Ser235/236 [1]): inhibited | effect on p-AKT in MF progenitor cells (p-AKT Ser473 [4]): inhibited

Cc1cnc(Nc2ccc(OCCN3CCCC3)cc2)nc1Nc1cccc(S(=O)(=O)NC(C)(C)C)c1 [TG101348]
maximum tolerated dose (MTD) [5]: 680 mg/day

alemtuzumab: monoclonal antibody, alternative immunotherapeutic for CLL
median progression-free survival (PFS) (CLL): 4.7 months
